Active and inactive are the calls of the source.
Tests used:
[1] = molecular target: Intestinal-type alkaline phosphatase (Mus musculus, UniProt P24822); assay: PubChem AID 488785; format: functional
[2] = molecular target: T1, Alkaline phosphatase, tissue-nonspecific isozyme (Homo sapiens, UniProt P05186); assay: TNAP enzyme inhibition by screening hits, dose response, selectivity assay for mouse IAP inhibitor project, biochemical, human TNAP, uHTS hits (AID 488906); format: functional
T1 sequence (P05186 whole entry): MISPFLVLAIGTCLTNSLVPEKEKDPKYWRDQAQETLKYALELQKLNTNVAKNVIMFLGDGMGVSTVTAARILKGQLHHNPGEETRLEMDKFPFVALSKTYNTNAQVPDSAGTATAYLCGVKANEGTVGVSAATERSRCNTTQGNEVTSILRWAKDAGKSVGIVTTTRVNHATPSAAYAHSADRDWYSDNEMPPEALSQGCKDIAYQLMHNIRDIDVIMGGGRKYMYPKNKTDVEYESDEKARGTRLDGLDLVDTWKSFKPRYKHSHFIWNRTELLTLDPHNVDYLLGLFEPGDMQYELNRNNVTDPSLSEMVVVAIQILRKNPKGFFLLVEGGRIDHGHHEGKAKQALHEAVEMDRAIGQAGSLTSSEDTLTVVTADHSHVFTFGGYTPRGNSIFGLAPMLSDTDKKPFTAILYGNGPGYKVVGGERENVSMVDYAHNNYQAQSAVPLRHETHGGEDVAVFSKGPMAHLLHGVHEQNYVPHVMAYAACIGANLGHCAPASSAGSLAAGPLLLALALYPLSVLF

[3] = molecular target: Intestinal-type alkaline phosphatase (Homo sapiens, UniProt P09923); assay: inhibition of human intestinal alkaline phosphatase – biochemical, dose response (AID 488876); format: functional
[4] = molecular target: 26S proteasome non-ATPase regulatory subunit 14 (Homo sapiens, UniProt O00487); assay: inhibition of proteasome subunit RPN11 – biochemical, fluorescence polarization, uHTS hits, confirmation (AID 602368); format: functional
Sequence of 26S proteasome non-ATPase regulatory subunit 14 (O00487 whole entry): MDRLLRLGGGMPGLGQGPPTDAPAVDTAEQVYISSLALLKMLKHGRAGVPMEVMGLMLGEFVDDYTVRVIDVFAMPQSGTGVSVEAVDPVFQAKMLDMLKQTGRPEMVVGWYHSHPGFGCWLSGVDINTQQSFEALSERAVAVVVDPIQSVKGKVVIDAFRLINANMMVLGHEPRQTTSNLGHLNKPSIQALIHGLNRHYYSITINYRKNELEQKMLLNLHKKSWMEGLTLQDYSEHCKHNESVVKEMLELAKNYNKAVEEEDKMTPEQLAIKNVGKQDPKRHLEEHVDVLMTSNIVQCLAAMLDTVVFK

[5] = molecular target: DNA repair and recombination protein RAD54-like (Homo sapiens, UniProt Q92698); assay: RAD54 Holliday junction migration blockers – biochemical, fluorescence, cherry-picked samples, dose series, confirmation (AID 651657); format: functional
[6] = tested on: BJ; assay: BJ-TERT fibroblast viability loss – cell-based, RAS-independent, luminescence, dose response (AID 1933); format: functional; settings: Homo sapiens
[7] = molecular target: 72 kDa type IV collagenase (Homo sapiens, UniProt P08253); assay: Dose Response validation of uHTS RPN11 inhibitor hits using a MMP-2 Fluorescence assay.; format: functional
Sequence of 72 kDa type IV collagenase (P08253 whole entry): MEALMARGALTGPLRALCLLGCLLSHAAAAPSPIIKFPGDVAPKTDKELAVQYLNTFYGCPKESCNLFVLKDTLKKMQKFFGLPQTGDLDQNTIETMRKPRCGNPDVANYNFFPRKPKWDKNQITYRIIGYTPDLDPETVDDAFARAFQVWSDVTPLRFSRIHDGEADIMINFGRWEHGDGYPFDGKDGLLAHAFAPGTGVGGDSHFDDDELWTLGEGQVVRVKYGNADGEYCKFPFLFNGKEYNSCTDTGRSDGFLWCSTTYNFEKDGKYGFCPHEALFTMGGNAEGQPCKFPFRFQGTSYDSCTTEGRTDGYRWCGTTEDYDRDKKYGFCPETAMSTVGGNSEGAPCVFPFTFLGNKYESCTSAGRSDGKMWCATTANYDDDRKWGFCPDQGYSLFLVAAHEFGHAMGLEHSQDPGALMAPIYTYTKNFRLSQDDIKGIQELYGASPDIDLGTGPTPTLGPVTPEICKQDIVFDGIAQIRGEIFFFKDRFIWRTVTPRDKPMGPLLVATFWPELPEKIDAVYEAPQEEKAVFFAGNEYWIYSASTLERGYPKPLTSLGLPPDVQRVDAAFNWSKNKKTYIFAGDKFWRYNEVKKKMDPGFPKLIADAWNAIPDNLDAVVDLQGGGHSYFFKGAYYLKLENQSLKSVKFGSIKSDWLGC

[8] = molecular target: T2, Kappa-type opioid receptor (Homo sapiens, UniProt P41145); format: functional
T2 sequence (P41145 whole entry): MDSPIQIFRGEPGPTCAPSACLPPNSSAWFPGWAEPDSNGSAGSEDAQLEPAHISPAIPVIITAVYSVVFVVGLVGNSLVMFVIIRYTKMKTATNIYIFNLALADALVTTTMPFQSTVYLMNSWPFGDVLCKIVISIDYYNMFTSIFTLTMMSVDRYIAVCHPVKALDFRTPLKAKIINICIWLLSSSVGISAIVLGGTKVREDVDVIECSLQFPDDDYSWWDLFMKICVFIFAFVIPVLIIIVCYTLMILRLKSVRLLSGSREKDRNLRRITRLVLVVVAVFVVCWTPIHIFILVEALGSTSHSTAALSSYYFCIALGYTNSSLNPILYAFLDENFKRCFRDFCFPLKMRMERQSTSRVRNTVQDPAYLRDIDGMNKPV

[9] = molecular target: Mu-type opioid receptor (Homo sapiens, UniProt P35372); assay: HTS Image-Based Screen for Agonists of the MOR Receptor. [Related pubchem assays (depositor defined):AID1777, AID1785, AID1786, AID2133]; format: functional;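 also: imaging of beta-arrestin GFP recruitment into spots after receptor activation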
Sequence of Mu-type opioid receptor (P35372 whole entry): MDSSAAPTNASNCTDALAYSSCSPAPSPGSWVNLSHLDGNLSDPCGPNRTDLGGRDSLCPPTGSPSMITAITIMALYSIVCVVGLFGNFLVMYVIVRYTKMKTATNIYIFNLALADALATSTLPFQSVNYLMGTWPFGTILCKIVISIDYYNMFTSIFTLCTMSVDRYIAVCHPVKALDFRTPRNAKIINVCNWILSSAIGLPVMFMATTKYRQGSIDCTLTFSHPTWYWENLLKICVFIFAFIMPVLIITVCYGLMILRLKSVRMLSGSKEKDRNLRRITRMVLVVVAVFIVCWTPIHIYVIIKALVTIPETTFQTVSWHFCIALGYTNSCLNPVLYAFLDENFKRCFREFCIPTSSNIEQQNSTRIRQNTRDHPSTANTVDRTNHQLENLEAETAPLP

[10] = alpha-synuclein stem-loop luciferase translation blockers – H4 neuroglioma cells, luminescence, confirmation (AID 1988); format: functional, cell-based
[11] = molecular target: T3, Delta-type opioid receptor (Homo sapiens, UniProt P41143); assay: HTS Image-Based Screen for Agonists of the DOR Receptor. [Related pubchem assays (depositor defined):AID1777, AID1786, AID2133]; format: functional
T3 sequence (P41143 whole entry): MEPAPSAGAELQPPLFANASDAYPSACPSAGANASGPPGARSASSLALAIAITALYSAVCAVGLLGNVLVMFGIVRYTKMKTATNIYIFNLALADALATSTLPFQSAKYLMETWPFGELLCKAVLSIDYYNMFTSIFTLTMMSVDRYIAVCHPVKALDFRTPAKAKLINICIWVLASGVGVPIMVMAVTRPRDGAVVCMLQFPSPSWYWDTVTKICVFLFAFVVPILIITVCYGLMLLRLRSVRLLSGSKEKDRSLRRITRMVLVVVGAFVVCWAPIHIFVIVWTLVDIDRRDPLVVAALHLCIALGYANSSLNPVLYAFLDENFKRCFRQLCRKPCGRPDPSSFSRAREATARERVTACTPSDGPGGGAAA

[12] = THP-1 cell cytotoxicity, dose response, cytotoxicity control for non-replicating M. tuberculosis project (AID 489025); format: functional
[13] = tested on: INS1; assay: INS-1E survival protection against cytokine death – cell-based, luminescence, retest, dose response (AID 449756); format: functional; settings: Rattus norvegicus;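 also: cell death triggered by IL-1 beta plus TNF-alpha plus IFN-gamma mixture; protective hits raise ATP signal compared with cytokine alone wells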
[14] = cytotoxicity toward MDA-MB-231 breast cancer cells – cell-based, CellTiter-Glo luminescence, cherry-pick, cytotoxicity control for RAD54 inhibitor project, dose response (AID 651692); format: functional
[15] = molecular target: Prothrombin (Bos taurus, UniProt P00735); assay: thrombin protease inhibitors – biochemical, fluorescence polarization, uHTS hits, dose response (AID 602369); format: functional
[16] = DRD fibroblast viability loss – cell-based, non-viral oncogenic, luminescence, dose response (AID 1934); format: functional; settings: Homo sapiens
[17] = tested on: BJ; assay: BJ-TERT-LT-ST fibroblast viability loss – cell-based, RAS-independent, luminescence, dose response (AID 1935); format: functional; settings: Homo sapiens;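 also: BJ fibroblasts immortalized with TERT plus LT and ST oncogenes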
[18] = molecular target: T2, Kappa-type opioid receptor; format: functional; remark: listed apart in the source
[19] = HepG2 cell cytotoxicity, dose response, cytotoxicity control for non-replicating M. tuberculosis project (AID 489018); format: functional; settings: Mycobacterium tuberculosis
[20] = cells; format: functional
[21] = luciferase reporter signal suppression in cells – H4 neuroglioma cells, luminescence, dose response (AID 1990); format: functional, cell-based
[22] = molecular target: T3, Delta-type opioid receptor; assay: HTS Image-Based Screen for Antagonists of the DOR Receptor. [Related pubchem assays (depositor defined):AID1777, AID1785, AID1786, AID2133]; format: functional
[23] = Luminescence Cell-Based Dose Response HTS to Identify Inhibitors of 5'UTR Stem-Loop Driven Prion Protein mRNA Translation in H4 Neuroglioblastoma Cells. [Related pubchem assays: 1827 (Project Summary), 1813 (Primary HTS)]; format: functional
[24] = Vero E6 cell cytotoxicity, dose response, cytotoxicity control for non-replicating M. tuberculosis project, secondary assay (AID 492998); format: functional, VeroE6; settings: Vero C1008
[25] = tested on: BJ; assay: cells; format: functional, cell-based; settings: Homo sapiens
[26] = molecular target: T4, Tyrosine-protein phosphatase non-receptor type 22 (Homo sapiens, UniProt Q9Y2R2); format: functional
T4 sequence (Q9Y2R2 whole entry): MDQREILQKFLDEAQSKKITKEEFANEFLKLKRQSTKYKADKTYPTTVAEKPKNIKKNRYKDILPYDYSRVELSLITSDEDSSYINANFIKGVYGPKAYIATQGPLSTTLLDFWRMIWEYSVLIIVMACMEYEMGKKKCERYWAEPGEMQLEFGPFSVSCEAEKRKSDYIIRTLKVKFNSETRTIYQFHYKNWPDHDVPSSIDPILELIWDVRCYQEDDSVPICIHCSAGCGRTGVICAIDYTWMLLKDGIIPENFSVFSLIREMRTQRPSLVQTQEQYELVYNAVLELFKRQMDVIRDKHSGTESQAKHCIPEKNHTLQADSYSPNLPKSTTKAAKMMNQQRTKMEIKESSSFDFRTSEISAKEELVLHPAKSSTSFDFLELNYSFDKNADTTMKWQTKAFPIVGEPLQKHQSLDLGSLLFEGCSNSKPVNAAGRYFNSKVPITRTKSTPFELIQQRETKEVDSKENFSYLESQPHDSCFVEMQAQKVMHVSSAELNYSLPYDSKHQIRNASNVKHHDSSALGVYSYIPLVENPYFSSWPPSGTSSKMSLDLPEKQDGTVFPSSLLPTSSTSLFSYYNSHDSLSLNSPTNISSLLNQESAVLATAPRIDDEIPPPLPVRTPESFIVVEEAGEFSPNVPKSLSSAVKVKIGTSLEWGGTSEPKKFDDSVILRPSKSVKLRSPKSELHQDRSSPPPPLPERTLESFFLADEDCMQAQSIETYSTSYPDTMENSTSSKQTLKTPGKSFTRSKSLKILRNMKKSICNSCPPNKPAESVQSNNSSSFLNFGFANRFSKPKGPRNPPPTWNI

[27] = molecular target: T4, Tyrosine-protein phosphatase non-receptor type 22; format: functional; remark: listed apart in the source
[28] = molecular target: T5, Tyrosine-protein phosphatase non-receptor type 7 (Homo sapiens, UniProt P35236); format: functional
T5 sequence (P35236 whole entry): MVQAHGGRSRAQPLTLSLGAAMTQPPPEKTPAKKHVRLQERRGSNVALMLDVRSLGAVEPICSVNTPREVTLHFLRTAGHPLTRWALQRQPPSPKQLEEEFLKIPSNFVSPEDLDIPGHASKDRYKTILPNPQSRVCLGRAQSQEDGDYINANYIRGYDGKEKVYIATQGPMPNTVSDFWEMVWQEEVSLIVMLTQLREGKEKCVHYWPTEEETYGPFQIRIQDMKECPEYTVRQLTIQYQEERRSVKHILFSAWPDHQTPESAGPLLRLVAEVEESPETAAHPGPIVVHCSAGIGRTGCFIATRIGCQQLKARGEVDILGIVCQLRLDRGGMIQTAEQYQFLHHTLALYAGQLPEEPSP

[29] = molecular target: Lysine-specific demethylase 4C (Homo sapiens, UniProt Q9H3R0); assay: inhibition of JMJD2C H3K9me3 demethylation – biochemical, DELFIA europium, cherry-picked samples, dose response (AID 488835); format: functional
Sequence of Lysine-specific demethylase 4C (Q9H3R0 whole entry): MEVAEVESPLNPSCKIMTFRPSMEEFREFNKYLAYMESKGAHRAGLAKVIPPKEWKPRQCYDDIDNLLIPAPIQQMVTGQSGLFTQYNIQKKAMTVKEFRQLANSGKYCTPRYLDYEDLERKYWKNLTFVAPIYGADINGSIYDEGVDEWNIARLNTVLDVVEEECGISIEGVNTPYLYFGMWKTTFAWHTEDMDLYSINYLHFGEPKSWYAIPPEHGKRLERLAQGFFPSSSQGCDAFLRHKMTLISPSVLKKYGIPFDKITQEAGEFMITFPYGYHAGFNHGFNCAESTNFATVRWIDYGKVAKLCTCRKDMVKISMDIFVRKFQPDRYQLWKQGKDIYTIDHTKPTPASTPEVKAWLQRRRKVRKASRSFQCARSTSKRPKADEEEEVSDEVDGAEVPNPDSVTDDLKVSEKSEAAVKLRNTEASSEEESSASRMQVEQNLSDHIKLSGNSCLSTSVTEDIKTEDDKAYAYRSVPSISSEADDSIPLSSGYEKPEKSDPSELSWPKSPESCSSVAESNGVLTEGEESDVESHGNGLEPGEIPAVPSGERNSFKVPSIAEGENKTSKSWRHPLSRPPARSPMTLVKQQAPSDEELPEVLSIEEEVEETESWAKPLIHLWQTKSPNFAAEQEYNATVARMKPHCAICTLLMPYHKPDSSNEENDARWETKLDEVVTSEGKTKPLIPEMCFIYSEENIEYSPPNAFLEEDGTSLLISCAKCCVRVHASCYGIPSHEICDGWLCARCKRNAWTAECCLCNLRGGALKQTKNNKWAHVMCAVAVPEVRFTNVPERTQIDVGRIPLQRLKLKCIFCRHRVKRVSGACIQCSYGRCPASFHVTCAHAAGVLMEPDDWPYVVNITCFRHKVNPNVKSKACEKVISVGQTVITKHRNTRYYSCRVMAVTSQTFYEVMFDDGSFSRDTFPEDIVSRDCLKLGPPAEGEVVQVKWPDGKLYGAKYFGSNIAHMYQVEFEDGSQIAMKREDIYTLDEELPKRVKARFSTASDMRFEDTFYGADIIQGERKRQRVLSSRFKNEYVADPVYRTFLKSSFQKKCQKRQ

[30] = molecular target: T6, Mannose-6-phosphate isomerase (Homo sapiens, UniProt P34949); assay: phosphomannose isomerase inhibition – biochemical, fluorescence intensity, confirmation (AID 1535)
T6 sequence (P34949 whole entry): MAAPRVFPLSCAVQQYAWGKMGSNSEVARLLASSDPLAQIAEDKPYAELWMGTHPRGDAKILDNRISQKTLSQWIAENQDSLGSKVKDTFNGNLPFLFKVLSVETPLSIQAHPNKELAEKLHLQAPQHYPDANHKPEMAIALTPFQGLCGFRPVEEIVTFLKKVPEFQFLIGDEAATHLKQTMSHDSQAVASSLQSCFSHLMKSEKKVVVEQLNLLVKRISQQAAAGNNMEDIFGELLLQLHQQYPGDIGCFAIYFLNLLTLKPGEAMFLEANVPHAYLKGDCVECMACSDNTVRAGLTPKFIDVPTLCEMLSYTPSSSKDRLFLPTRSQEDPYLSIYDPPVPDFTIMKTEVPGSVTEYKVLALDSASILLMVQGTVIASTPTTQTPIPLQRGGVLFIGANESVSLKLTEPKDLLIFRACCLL

[31] = molecular target: Phosphomannomutase 2 (Homo sapiens, UniProt O15305); assay: Counter screen SAR assay for PMM2 inhibitors via a fluorescence intensity assay. [Related pubchem assays (depositor defined):AID1545, AID1574]
Sequence of Phosphomannomutase 2 (O15305 whole entry): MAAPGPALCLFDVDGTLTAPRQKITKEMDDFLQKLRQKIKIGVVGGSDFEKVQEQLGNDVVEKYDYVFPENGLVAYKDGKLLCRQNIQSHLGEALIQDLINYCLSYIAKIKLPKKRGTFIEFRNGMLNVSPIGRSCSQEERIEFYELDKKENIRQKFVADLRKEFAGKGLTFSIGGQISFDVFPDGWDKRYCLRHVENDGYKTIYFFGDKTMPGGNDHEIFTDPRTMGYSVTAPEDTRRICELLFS

[32] = tested on: HEK293; assay: cells; settings: Homo sapiens
[33] = tested on: BJ; assay: growth inhibition of engineered Ras-driven BJ cells – cell-based, alamar blue fluorescence, cherrypicked samples, dose response (AID 2631); format: functional; settings: Homo sapiens;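 also: confirmatory dose-response assay in RAS-dependent BJ fibroblasts engineered with TERT, LT and ST, with cytotoxicity read by fluorescence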
[34] = tested on: HEK293; assay: cells; settings: Homo sapiens; remark: listed apart in the source
[35] = restored growth of temperature-sensitive Burl-1 yeast – whole organism, S. cerevisiae, Burl-1 ts mutant, luminescence, counter-screen for SUMOylation pathway inhibitor project, dose response (AID 463199); format: functional
[36] = molecular target: Cytochrome P450 3A4 (Homo sapiens, UniProt P08684);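 also: CYP3A4 tested as one member of a cytochrome P450 panel screen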
Sequence of Cytochrome P450 3A4 (P08684 whole entry): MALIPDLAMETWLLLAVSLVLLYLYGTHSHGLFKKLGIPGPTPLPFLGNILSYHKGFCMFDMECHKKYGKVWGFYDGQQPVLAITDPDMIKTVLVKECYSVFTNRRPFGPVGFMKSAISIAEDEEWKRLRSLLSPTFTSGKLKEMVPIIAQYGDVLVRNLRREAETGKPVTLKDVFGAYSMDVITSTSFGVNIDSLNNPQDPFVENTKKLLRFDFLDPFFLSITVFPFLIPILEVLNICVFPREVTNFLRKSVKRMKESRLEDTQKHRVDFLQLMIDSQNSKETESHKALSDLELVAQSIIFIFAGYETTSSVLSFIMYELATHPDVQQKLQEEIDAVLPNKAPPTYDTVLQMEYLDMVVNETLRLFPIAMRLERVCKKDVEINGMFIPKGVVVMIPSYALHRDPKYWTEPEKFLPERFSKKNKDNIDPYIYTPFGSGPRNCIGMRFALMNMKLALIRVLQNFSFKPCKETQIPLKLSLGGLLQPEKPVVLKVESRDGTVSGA

[37] = molecular target: Cytochrome P450 2D6 (Homo sapiens, UniProt P10635);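 also: CYP2D6 member of a cytochrome P450 panel assay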
Sequence of Cytochrome P450 2D6 (P10635 whole entry): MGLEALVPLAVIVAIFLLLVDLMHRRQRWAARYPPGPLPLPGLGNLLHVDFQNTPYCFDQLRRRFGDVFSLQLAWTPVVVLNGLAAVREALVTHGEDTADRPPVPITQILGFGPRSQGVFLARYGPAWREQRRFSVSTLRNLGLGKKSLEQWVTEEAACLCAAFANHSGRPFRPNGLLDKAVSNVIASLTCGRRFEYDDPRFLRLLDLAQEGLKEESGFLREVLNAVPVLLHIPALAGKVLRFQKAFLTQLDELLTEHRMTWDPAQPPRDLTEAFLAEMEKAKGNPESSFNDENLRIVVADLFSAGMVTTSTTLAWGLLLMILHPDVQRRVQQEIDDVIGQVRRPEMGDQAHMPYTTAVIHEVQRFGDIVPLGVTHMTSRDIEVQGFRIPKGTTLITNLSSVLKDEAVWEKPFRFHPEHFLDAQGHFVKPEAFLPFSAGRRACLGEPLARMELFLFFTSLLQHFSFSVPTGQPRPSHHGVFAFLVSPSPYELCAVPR

[38] = molecular target: T7, Cytochrome P450 1A2 (Homo sapiens, UniProt P05177);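 also: PubChem cytochrome P450 panel assay, CYP1A2 panel member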
T7 sequence (P05177 whole entry): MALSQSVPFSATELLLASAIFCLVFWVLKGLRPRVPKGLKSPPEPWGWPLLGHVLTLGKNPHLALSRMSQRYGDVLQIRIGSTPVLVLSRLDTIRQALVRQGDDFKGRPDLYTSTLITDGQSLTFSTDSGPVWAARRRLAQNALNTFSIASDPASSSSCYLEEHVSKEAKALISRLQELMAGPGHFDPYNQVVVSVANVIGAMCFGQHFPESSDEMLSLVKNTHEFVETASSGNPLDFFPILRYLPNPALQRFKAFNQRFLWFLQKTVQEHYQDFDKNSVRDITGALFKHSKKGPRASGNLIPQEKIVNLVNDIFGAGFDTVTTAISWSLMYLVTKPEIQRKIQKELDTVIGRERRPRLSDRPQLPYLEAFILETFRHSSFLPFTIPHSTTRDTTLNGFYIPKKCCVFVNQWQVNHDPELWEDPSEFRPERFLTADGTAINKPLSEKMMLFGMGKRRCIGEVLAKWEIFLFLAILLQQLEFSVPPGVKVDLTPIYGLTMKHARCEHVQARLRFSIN

[39] = molecular target: Cytochrome P450 2C19 (Homo sapiens, UniProt P33261); assay: Cytochrome panel assay with activity outcomes. Panel member name: p450-cyp2c19 Compounds with AC50 equal or less than 10 uM are considered active; format: functional
[40] = molecular target: Cytochrome P450 2C9 (Homo sapiens, UniProt P11712)

Sequence of Intestinal-type alkaline phosphatase (Mus musculus, UniProt P24822) (P24822 whole entry): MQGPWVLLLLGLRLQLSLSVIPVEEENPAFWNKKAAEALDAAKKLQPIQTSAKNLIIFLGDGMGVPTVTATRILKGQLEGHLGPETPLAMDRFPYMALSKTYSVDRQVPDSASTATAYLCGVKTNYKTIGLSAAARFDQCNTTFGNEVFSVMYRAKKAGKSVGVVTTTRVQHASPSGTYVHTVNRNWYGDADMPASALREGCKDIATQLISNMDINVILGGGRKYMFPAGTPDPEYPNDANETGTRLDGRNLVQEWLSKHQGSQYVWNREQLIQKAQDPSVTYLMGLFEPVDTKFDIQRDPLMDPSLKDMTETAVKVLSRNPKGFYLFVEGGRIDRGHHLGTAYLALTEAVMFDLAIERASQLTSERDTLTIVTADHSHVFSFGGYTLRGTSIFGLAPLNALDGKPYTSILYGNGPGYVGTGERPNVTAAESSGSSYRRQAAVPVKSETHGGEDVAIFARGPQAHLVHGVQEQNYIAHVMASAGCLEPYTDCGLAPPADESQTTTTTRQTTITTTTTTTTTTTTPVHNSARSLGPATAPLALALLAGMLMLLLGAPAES

O=C(CCN1C(=O)/C(=C/c2ccco2)SC1=S)Nc1ccc(O)cc1C(=O)O
IC50 [1]: 1.51 µM (active) | IC50 [2]: 19.6 µM (active) | IC50 [3]: > 100 µM (inactive)

COc1cc2ccccc2cc1C(=O)Nc1sc2c(c1C(N)=O)CCN(C(C)C)C2
IC50 [4]: 18.1 µM (active) | AC50 [5]: 9.33 µM (active) | EC50 [6]: 6.33 µM (active) | IC50 [7]: > 100 µM (inactive) | EC50 [8]: 14.8 µM | EC50 [9]: > 32 µM (inactive) | EC50 [10]: > 120 µM (not active) | EC50 [11]: > 32 µM (inactive) | CC50 [12]: 11.6 µM (active) | AC50 [13]: 7.78 µM (active) | AC50 [14]: 16 µM (active) | IC50 [15]: 15.1 µM (active) | EC50 [16]: 7.16 µM (active) | EC50 [17]: 6.85 µM (inconclusive) | EC50 [18]: 2 µM | CC50 [19]: 10.8 µM (active) | IC50 [20]: 11.9 µM (active) | EC50 [21]: > 120 µM (not active) | IC50 [22]: > 32 µM (inactive) | EC50 [23]: > 120 µM (not active) | CC50 [24]: 4.6 µM (active) | EC50 [25]: 13.6 µM (active)

Cc1cccnc1-n1c(C)nc2ccccc2c1=O
IC50 [26]: > 79.4 µM (inactive) | IC50 [27]: > 79.4 µM (inactive) | IC50 [28]: > 79.4 µM (inactive)

CCOC(=O)C1=CC(=C2C(=O)N(CC)C(=S)N(CC)C2=O)c2ccccc2O1
AC50 [29]: 12.2 µM (active)

Cc1ccc(/N=c2\ssnc2Cl)c([N+](=O)[O-])c1
IC50 [30]: 4.44 µM (active) | IC50 [31]: 96.2 µM (active)

CC(C)c1cc(C(=O)N/N=C/C(Br)=C/c2ccccc2)[nH]n1
EC50 [6]: 29.6 µM (active) | EC50 [32]: > 59.7 µM (inactive) | EC50 [16]: 5.12 µM (active) | EC50 [17]: > 150 µM (inconclusive) | EC50 [33]: 22.2 µM (active) | EC50 [34]: > 59.7 µM (inactive) | AC50 [35]: 137 µM (active) | EC50 [25]: 4.12 µM (active)

O=C(O)c1cc2ccccc2c(Cc2c(O)c(C(=O)O)cc3ccccc23)c1O [PAMOIC ACID]
AC50 [36]: inactive | AC50 [37]: inactive | AC50 [38]: inactive | AC50 [39]: inactive | AC50 [40]: inactive

Reference: ChEMBL document CHEMBL1201862, “PubChem BioAssay data set” (2004)
